Data from patent US20250268980A1, “AN ANTICANCER THERAPY TARGETING RAS AND OTHER ONCOGENIC SIGNALS BY INHIBITION OF DYNAMIC BLEBBING AND/OR SEPTINS” (THE BOARD OF REGENTS OF THE UNIVERSITY OF TEXAS SYSTEM, priority 2022, published 2025).

Tested on: cortical septin structures in MV3 cells
Assay: Cortical septin localization (SEPT6-GFP) in MV3 cells
Format: cell-based, human
Conditions: MV3 SEPT6-GFP; WGA (50 ug/ml), VitroGel, H1152 (1 μM), NSC668394 (10 μM)
Description: Cells Embedded in 3D Collagen.
Cells Grown in VitroGel Coffins. VitroGel coffins were prepared by embedding MV3 or A375 cells in VitroGel 3D or RGD at 1:1 dilution according to manufacturer's instructions (TheWell Biosciences, sku #TWG001). […] A 1:1 solution of VitroGel and VitroGel Dilution Solution was made and added to cell suspension at a ratio of 4:1 (VitroGel: cells) using gentle pipetting until well-mixed (with care taken not to form bubbles). Cell/VitroGel solution was transferred to an 8-well uncoated ibidi μ-slide (ibidi cat #80821) at 100 μl/well, spread over the bottom of wells with a pipette tip, and allowed to polymerize at room temperature for 15 minutes. The remainder of the well was then filled with 10% FBS DMEM and slide was stored at 37° C. and 5% CO2 for either 24 hrs for viability assays, 3 hrs for ERK activity assays, or 1 hour for visualization of septins/PI3K activity.
3D Light-Sheet Imaging. […] All images were saved in the OME-TIFF format.
3D Cell Image Analysis. Cell morphology and septin localization were analyzed principally via u-shape3D similar to the protocol described in Driscoll et al. Nature Methods. 16, 1037-1044 (2019), the disclosure of which is incorporated herein in its entirety. Briefly, 3D images were first deconvolved using either a Richardson-Lucy or Wiener algorithm with an experimentally measured point spread function. […] Cell surfaces were then represented as triangle meshes, and the mean surface curvature at every triangle was calculated according to methods described in Driscoll et al. Nature Methods. […] Septin and NRAS localization was measured from fluorescence images by extending a sphere of either 1 μm (for septins) or 2 μm (for NRAS) about each mesh triangle and mapping to the triangle the average intensity both within that sphere and the cell. Image intensity was not depth normalized prior to analysis, but was instead measured from the raw, undeconvolved image. […]
Cortical septin levels were quantified by measuring the mean cytoplasmic intensity of each cell using hand-drawn ROIs that excluded nuclei (performed with the FIJI ImageJ package), and then calculating for each cell its fraction of cortical voxels (intracellular voxels within 0.96 μm of the u-Shape3D-derived surface) that were higher than that cell's mean cytoplasmic intensity (performed using a MATLAB script). NRAS enrichment at the surface was quantified by first calculating the total amount of intracellular signal expected to be within 0.96 μm of the surface if the cell's signal was homogenously distributed between all voxels, and then calculating the percent change between this value and the observed value for each cell. […]

For Cc1cncc2cccc(S(=O)(=O)N3CCCNC[C@@H]3C)c12 [H1152], the “septin localization (cortical levels)” value was “pronounced effects on septin localization, reducing cortical levels”.
